Laboratory results published in ChEMBL document CHEMBL2074033, “In vivo imaging of hepatobiliary transport function mediated by multidrug resistance associated protein and P-glycoprotein” (Cancer Chemother Pharmacol, 2004).

Target: ATP-dependent translocase ABCB1 (Homo sapiens, UniProt P08183)
Experiment: TP_TRANSPORTER: cell accumulation in GLP4/P-gp cells
Type: functional, cell-based

ATP-dependent translocase ABCB1, sequence (P08183 whole entry): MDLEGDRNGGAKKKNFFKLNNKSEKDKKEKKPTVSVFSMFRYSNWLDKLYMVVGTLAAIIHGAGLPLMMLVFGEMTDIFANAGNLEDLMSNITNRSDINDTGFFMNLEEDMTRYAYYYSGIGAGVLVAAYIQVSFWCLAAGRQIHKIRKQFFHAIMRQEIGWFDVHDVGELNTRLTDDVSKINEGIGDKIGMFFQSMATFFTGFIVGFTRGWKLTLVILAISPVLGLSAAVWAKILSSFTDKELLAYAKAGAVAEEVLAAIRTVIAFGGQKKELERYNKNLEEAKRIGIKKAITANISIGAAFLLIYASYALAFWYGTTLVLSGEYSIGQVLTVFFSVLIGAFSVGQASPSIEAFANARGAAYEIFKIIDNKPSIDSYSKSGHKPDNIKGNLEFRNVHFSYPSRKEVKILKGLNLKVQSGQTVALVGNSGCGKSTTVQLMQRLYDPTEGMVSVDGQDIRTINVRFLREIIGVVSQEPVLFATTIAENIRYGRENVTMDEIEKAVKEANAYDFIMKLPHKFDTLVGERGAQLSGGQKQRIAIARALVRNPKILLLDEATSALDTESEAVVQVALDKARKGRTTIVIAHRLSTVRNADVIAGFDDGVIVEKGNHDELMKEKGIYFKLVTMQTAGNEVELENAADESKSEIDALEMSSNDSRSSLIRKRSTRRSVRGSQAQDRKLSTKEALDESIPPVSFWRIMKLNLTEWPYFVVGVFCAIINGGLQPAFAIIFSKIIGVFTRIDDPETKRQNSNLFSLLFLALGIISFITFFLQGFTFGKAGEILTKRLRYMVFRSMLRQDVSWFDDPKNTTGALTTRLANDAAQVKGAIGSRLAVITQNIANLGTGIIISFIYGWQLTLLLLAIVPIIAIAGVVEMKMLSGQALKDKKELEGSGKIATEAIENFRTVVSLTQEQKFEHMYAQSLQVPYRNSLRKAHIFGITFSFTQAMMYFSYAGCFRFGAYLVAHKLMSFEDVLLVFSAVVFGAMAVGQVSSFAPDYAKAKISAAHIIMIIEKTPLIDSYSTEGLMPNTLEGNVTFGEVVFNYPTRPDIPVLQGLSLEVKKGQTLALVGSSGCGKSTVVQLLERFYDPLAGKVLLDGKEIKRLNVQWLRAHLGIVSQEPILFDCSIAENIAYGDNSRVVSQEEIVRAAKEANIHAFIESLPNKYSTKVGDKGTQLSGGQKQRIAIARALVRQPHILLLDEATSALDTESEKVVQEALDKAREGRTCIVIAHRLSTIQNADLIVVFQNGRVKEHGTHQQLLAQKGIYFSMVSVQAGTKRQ

TECHNETIUM TC 99M DISOFENIN was tested. Which Activity did it give?
The Activity was “is not a substrate [-]”.
